Source: patent EP1551873B1, “AGONISTS AND ANTAGONISTS OF THE HUMAN ODORANT RECEPTOR OR17-4 AND USES THEREOF” (Symrise AG, priority 2002, dated 2004)

Assays:
hOR17-4 = test: Ca2+ imaging (Fura-2) of HEK293 cells transiently transfected with pOR17-4 (chimeric receptor); format: cell-based, human; details: for Rezeptoraktivierung (Ca^2+-Antwort): single odorant about 500 µM, pOR17-4-transfected HEK293 cells; for Wirksamkeit (Rangordnung der Agonisten): ranking by amplitude normalised to ATP and by responding cells relative to Cyclamal ca. 5 mM
Text: Es wird vermutet, dass die Transmembrandomänen III-VI eine Bindungstasche zum Binden von Agonisten bilden (s. S. Firestein, Nature 413, 211-218 (2001)). Um diese Vermutung für den Rezeptor hOR17-4 zu überprüfen wurde ein für die vermuteten Transmembrandomänen III bis VI codierender Abschnitt der für hOR17-4 codierenden cDNA in einem Shuttle-Expressions-Vektor (pOLF-Express) kloniert. Der Expressionsvektor pOLF-Express umfasst die für die N- und C-terminalen Regionen von hOR17-40 codierenden DNA-Abschnitte (C. H. Wetzel et al., Journal of Neuroscience 19, 7426-7433 (1999)). Das resultierende chimäre Rezeptorprotein sollte die Agonistenspezifität des vollständigen Rezeptors hOR17-4 besitzen.
HEK293-Zellen wurden in MEM (Life Technologies, Gaithersburg, MD), das mit 10 % hitze-inaktiviertem fetalem Kälber-Serum angereichert war, in einem Inkubator bei 37 °C in einer Atmosphäre aus 95 % befeuchteter Luft und 5 % CO2 kultiviert. Semikonfluente Zellen wurden in 35 mm Gefäßen (Falcon) mittels Calciumphosphat-Präzipitation (Zufall et al., PNAS 90 (1993), 9335-9339) unter Verwendung jeweils des Plasmids pOR17-4 bzw. pOR17-4v transfiziert. Die Transfektionseffizienz - typischerweise 10 % - wurde histochemisch mit dem Reporterplasmid pCH110 (Pharmacia, Uppsala, Schweden) überprüft, das für β-Galactosidase codiert. Messungen wurden 48 bis 72 Stunden nach der Transfektion durchgeführt. Die Transfektionseffizienz kann mit einem für GFP, einem grün fluoreszierenden Protein, codierenden Reporterplasmid ebenfalls überprüft werden.
Die Rezeptor-Aktivierung in HEK293-Zellen führt zu einem vorübergehenden Anstieg der cytosolischen Ca^2+-Konzentration, die auf der Einzelzell-Ebene unter Verwendung des Ca^2+-sensitiven Farbstoffes Fura-2 (Fura-2 AM, Molecular Probes Europe BV, Leiden, Niederlande; Ladekonzentration 3-4 µg/ml; Ladezeit ca. 30 min) und ratiofluorometrischen Bildgebungstechniken (Imaging-Experimente) detektiert wurden.
Die Ca^2+-imaging-Experimente wurden auf dem Träger eines invertierten Zeiss-Mikroskopes durchgeführt, das für die ratiofluorometrische Bildgebung mit einer Xenon-Bogenlampe, einem Vielfach-Wellenlängen-Illuminations-System POLYCH-ROM II zur Anregung, einer gekühlten charge-coupled device (CCD)-Kamera und einer WinNT-basierten T.I.L.L.-Vision-Software zum Sammeln und raum- und zeitabhängigen Quantifizieren Ca^2+-abhängiger Fluoreszenz-Signale (F340/F380-Verhältnis) ausgestattet war. HEK293-Zellen wurden mit 32-facher, Spermazellen mit 63-facher Vergrößerung beobachtet.
HEK293- und Spermazellen wurden unter Verwendung eines speziellen Applikations-Systems, das es gestattete, vorübergehend alle Zellen im Blickfeld aus einem von sechs benutzergewählten Kapillarröhrchen zu überspülen, Geruchs- und/oder Wirkstoffen (Testlösungen) ausgesetzt. Der Wechsel zwischen den Testlösungen erfolgte nahezu sofort; auch trat im Wesentlichen keine Wirkungsverzögerung nach dem Wechsel auf, weil die Röhrchenspitzen zum optischen Feld eng benachbart waren. Zwischen den Applikationen von Testlösungen überspülte ein Pufferlösungsstrom kontinuierlich alle Zellen im Gefäß, um jedwede potentielle Hintergrund-Anreicherung von Testlösungen (Geruchs- bzw. Wirkstoffen) zu minimieren. Alle Lösungen wurden bei Raumtemperatur appliziert. Alle verwendeten Geruchsstoffe stammten von Dr. T. Gerke, Henkel KGaA, Düsseldorf, FRG, andere Wirkstoffe wurden von Sigma gekauft. Zur Zusammensetzung der Henkel 100-Mischung vergleiche C. H. Wetzel et al., Journal of Neuroscience 19, 7426-7433 (1999).
Alle auf die potentielle Aktivierung von hOR17-4 untersuchten Geruchsstoffe wurden wenigstens in drei verschiedenen Reihen von Transfektionsexperimenten getestet. […] Geruchsstoffe, die nicht in wenigstens 2 % aller HEK293-Zellen messbare Ca^2+-Konzentrationssteigerung auslösten, wurden nicht zu den hOR17-4-spezifischen Agonisten gezählt, ebenso diejenigen wenigen der untersuchten Komponenten, die ein unspezifisches Ca^2+-Signal in fast jeder Zelle hervorriefen. […]

[1] = system: olfaktorische Rezeptor OR5; details: receptor expressed in E. coli; cited from earlier work
hOR17-40 [2] = biological target: T1, hOR17-40 (Homo sapiens, UniProt P47881); details: literature (Wetzel et al. 1999), HEK293; cited from earlier work
T1 construct: pOR17-40 (Ausschnitt) mit der vollständigen cDNA von hOR17-40; expressed in transfected cells; host or cells: HEK293, plasmid pOR17-40
T1 sequence (P47881 1-315): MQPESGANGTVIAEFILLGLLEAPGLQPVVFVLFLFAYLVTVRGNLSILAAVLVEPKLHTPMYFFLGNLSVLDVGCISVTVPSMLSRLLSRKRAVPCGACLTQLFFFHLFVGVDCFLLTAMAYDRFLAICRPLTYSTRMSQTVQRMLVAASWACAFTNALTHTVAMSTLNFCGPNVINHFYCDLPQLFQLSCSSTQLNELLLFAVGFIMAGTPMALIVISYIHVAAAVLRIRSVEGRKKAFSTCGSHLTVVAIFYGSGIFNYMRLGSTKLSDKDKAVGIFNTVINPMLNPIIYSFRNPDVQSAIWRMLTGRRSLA

Spermien = test: Signal transduction inhibitors on bourgeonal response of sperm (chemotaxis and swimming speed); format: cell-based, human; details: inhibitor 50 µM, Bourgeonal 100 nM
Protocol: Gefrorene Samenproben von fünf gesunden Spendern wurden aus der California Cryobank (Los Angeles, CA, USA) erhalten und für Bioassays gemäß den World Health Organization-Richtlinien (World Health Organization: Laboratory for the examination of human serum and semen-cervical mucus interaction, Cambridge University Press (1993)) vorbereitet (vgl. vorheriges Beispiel und Beispiel 7). Bevor oder während die Spermien mit Bourgeonal (100 nM) behandelt wurden, wurden sie jeweils (a) mit Adenylatcyclase-Inhibitor (MDL-12,330A, 50 µM) und (b) mit einem Phospholipase C-Inhibitor (U73122, 50 µM) behandelt.

hOR17-40 [3] = biological target: T1, hOR17-40; test: Ca2+ imaging of HEK293 cells transfected with pOR17-40; format: cell-based; details: n=168
Ratten-I7-Rezeptor = biological target: T2, Ratten-I7-Rezeptor (Rattus norvegicus, UniProt P23270); details: cited from earlier work
T2 sequence (P23270 1-327): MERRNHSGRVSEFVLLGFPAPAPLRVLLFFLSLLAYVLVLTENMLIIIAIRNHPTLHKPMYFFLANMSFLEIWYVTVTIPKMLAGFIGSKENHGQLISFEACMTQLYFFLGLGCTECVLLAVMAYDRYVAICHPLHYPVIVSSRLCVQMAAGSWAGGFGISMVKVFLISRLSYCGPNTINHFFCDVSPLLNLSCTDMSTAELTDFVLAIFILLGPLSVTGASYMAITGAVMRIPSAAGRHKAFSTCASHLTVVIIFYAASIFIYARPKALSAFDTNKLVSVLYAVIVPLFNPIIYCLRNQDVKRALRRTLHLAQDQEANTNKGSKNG

| Molecule | Rezeptoraktivierung (Ca^2+-Antwort) (hOR17-4) | further results |
| --- | --- | --- |
| O=CCCCc1ccccc1 [4-Phenylbutylaldehyd, 4-Phenylbutyraldehyd] | deutliche Ca^2+-Signale | – |
| CCc1ccc(CC(C)(C)C=O)cc1 [Floralazon] | Fähigkeit der Substanzen, den Rezeptor zu aktivieren | – |
| O=CCCCCc1ccccc1 [5-Phenylvaleraldehyd, reference compound] | keine messbare Antwort | – |
| CC(C=O)Cc1ccc(C(C)(C)C)cc1 (centres unmarked) [Lilial, reference compound] | Fähigkeit der Substanzen, den Rezeptor zu aktivieren | Wirksamkeit (Rangordnung der Agonisten) (hOR17-4): wirksamere Agonisten; spezifische Bindung [1]: spezifische Bindung |
| O=CCCc1ccccc1 [3-Phenylpropanal] | klaren Ca^2+-Antworten | – |
| CC(=O)CCc1ccc2c(c1)OCO2 [Heliotropylaceton] | – | Agonist (Aktivierung des Rezeptors, Erhöhung des cytosolischen Ca^2+-Spiegels) (hOR17-40 [2]): als Agonisten wirkende Substanzen |
| CC(CCO)c1ccccc1 (centres unmarked) [3-Phenylbutylalkohol, reference compound] | aktivierten den Rezeptor nicht | – |
| O=Cc1ccccc1 [Benzaldehyd, reference compound] | keine messbare Antwort | – |
| Cl.c1ccc(C2CCCC2NC2=NCCCCCCCCCCC2)cc1 (centres unmarked) [MDL-12,330A] | – | Anteil der bourgeonal-responsiven Spermien, die nicht mehr auf Bourgeonal reagierten (Spermien; missing chemotaxis and missing change of swimming speed): 72% |
| COc1ccc2c(c1)CC[C@@H]1[C@@H]2CC[C@]2(C)[C@@H](NCCCCCCN3C(=O)C=CC3=O)CC[C@@H]12 [U73122] | – | Änderung des Spermienverhaltens (Spermien): keine Änderung des Spermienverhaltens |
| CC(C)(C)c1ccc(OCC=O)cc1 [(4-tert-Butylphenoxy)acetaldehyd, (4-tert-butylphenoxy)acetaldehyd] | erzeugte ein Ca^2+-Signal | – |
| CC(C=O)Cc1ccc2c(c1)OCO2 (centres unmarked) [Helional, reference compound] | keiner Rezeptoraktivierung | Agonist (Aktivierung des Rezeptors, Erhöhung des cytosolischen Ca^2+-Spiegels) (hOR17-40 [2]): als Agonisten wirkende Substanzen; vorübergehende Erhöhung des cytosolischen Ca^2+-Spiegels, Anteil aller getesteten Zellen (hOR17-40 [3]): 2 - 5% |
| O=CC=Cc1ccccc1 [Cinnamaldehyd, reference compound] | vollständig inaktiv | – |
| Citrusal [reference compound] | nicht aktivierenden | – |
| O=C(O)CCc1ccccc1 [3-Phenylpropionsäure, reference compound] | aktivierten den Rezeptor nicht | – |
| COc1ccc(CC(C)C=O)cc1 (centres unmarked) [Canthoxal] | klare Ca^2+-Antworten | Induktion einer Ca^2+-Konzentrationssteigerung (hOR17-4; agonist concentration reduced to 10^-6 M): zu einem gewissen Ausmaß; Wirksamkeit (Rangordnung der Agonisten) (hOR17-4): wirksamere Agonisten |
| CCCCCCCC=O [Octanal, reference compound] | nicht aktiviert | Stimulation des Rezeptors (Ratten-I7-Rezeptor): stimuliert |
| CC=Cc1ccc(OC)cc1 [Anethol, reference compound] | aktivierten den Rezeptor nicht | – |
| CC(C=O)Cc1ccc(C(C)C)cc1 (centres unmarked) [Cyclamal] | Agonist identifiziert | Wirksamkeit (Rangordnung der Agonisten) (hOR17-4): nicht der wirksamste Agonist; Desensitisierung der Geruchsstoff-Antwort (hOR17-4; single application, most responsive cells, ATP response unchanged): vollständigen und langanhaltenden Desensitisierung |
| CC(CC=O)c1ccccc1 (centres unmarked) [3-PBA, 3-Phenylbutyraldehyd] | klaren Ca^2+-Antworten | eine Ca^2+-Reaktion nicht mehr auslösender Schwellenwert (hOR17-4): ~50 µM |
| O=CCc1ccccc1 [Phenylacetaldehyd] | deutliche Ca^2+-Signale | – |
| CC(C)c1ccccc1 [Isopropylbenzol, reference compound] | induzierte keine Rezeptoraktivität | – |
